The values below come from patent US12435060B2, “Acylamino bridged heterocyclic compound, and composition and application thereof” (BEIJING SCITECH-MQ PHARMACEUTICALS LIMITED, priority 2019, dated 2025).

In general, IC50 refers to the concentration that gives 50% inhibition. High values mean a need for much substance, low ones inhibition by little substance.

In the assay the test system is HT29 cells. As to the kind of experiment: Inhibition of cell necrosis (CCK8 method), induced programmed necrosis of HT29 cells. Format: cell-based. The conditions noted are these: Homo sapiens, HT-29; rescue from necrosis induced by TNF-α 20 ng/mL, AT-406 1 μM, Z-VAD-FMK 20 μM; 16-20 hours; CCK-8, OD 450 nm. A digest of the protocol:
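HT29 cells in McCOY's 5A with 10% FBS were pre-treated for 30 min with compound (9 fourfold steps, 25000 to 0.38 nM final, 0.25% DMSO). Necrosis was then induced with TNF-α 20 ng/mL, AT-406 1 μM and Z-VAD-FMK 20 μM for 16-20 h. Viability was read by CCK-8 OD450, normalized between uninduced and induced wells, and IC50 was curve-fitted.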
For orientation: Formazan colour is commonly taken as a measure of viable cells.
For the compound `CC(C)(O)CCCOc1ccc(F)c(-c2cc(NC(=O)c3nnc(Cc4ccccc4F)[nH]3)ncc2Cl)c1` [Example 320, N-(5-chloro-4-(2-fluoro-5-((4-hydroxy-4-methylpentyl)oxy)phenyl)pyridin-2-yl)-5-(2-fluorobenzyl)-4H-1,2,4-triazole-3-carboxamide], the IC50 is 100 to 1000 nM.

`CC(C)(O)CCCOc1ccc(F)c(-c2cc(NC(=O)c3nnc(CC4CCCCC4)[nH]3)ncc2Cl)c1` [Example 321, N-(5-chloro-4-(2-fluoro-5-((4-hydroxy-4-methylpentyl)oxy)phenyl)pyridin-2-yl)-5-(cyclohexylmethyl)-4H-1,2,4-triazole-3-carboxamide] returned an IC50 of 100 to 1000 nM.

Take `Cc1cnc(NC(=O)c2nnc(Cc3ccccc3F)[nH]2)cc1-c1cc(OCCCC(C)(C)O)ccc1F` [Example 322, N-(4-(2-fluoro-5-((4-hydroxy-4-methylpentyl)oxy)phenyl)-5-methylpyridin-2-yl)-5-(2-fluorobenzyl)-4H-1,2,4-triazole-3-carboxamide]: the IC50 lay within 100 to 1000 nM.

Compound `CCC(O)(CC)CCCOc1ccc(F)c(-c2cc(NC(=O)c3nnc(Cc4ccccc4F)[nH]3)ncc2Cl)c1` [Example 323, N-(5-chloro-4-(5-((4-ethyl-4-hydroxyhexyl)oxy)-2-fluorophenyl)pyridin-2-yl)-5-(2-fluorobenzyl)-4H-1,2,4-triazole-3-carboxamide] gave an IC50 of 100 to 1000 nM.

The compound `CCC(O)(CC)CCCOc1ccc(F)c(-c2cc(NC(=O)c3nnc(CC4CCCCC4)[nH]3)ncc2Cl)c1` [Example 324, 5-(cyclohexylmethyl)-N-(5-chloro-4-(5-((4-ethyl-4-hydroxyhexyl)oxy)-2-fluorophenyl)pyridin-2-yl)-4H-1,2,4-triazole-3-carboxamide] had an IC50 of 100 to 1000 nM.

`CC(C)(O)CCCCOc1ccc(F)c(-c2cc(NC(=O)c3nnc(Cc4ccccc4F)[nH]3)ncc2Cl)c1` [Example 325, N-(5-chloro-4-(2-fluoro-5-((5-hydroxyl-5-methylhexyl)oxy)phenyl)pyridin-2-yl)-5-(2-fluorobenzyl)-4H-1,2,4-triazole-3-carboxamide]: the IC50 lay within 100 to 1000 nM.

Consider `CC(C)(O)CCCCOc1ccc(F)c(-c2cc(NC(=O)c3nnc(CC4CCCCC4)[nH]3)ncc2Cl)c1` [Example 326, 5-(cyclohexylmethyl)-N-(5-chloro-4-(2-fluoro-5-((5-hydroxyl-5-methylhexyl)oxy)phenyl)pyridin-2-yl)-4H-1,2,4-triazole-3-carboxamide], for which the IC50 fell in the range of 100 to 1000 nM.

`O=C(Nc1cc(-c2cc(OCC3CCOCC3)ccc2F)c(F)cn1)c1nnc(Cc2ccccc2F)[nH]1` [Example 327, N-(5-fluoro-4-(2-fluoro-5-((tetrahydro-2H-pyran-4-yl)methoxy)phenyl)pyridin-2-yl)-5-(2-fluorobenzyl)-4H-1,2,4-triazole-3-carboxamide]: the IC50 was no more than 100 nM.

Turning to `O=C(Nc1cc(-c2cc(OCC3CCOCC3)ccc2F)c(F)cn1)c1nnc(CC2CCCCC2)[nH]1` [Example 328, 5-(cyclohexylmethyl)-N-(5-fluoro-4-(2-fluoro-5-((tetrahydro-2H-pyran-4-yl)methoxy)phenyl)pyridin-2-yl)-4H-1,2,4-triazole-3-carboxamide], the IC50 is no more than 100 nM.

`O=C(Nc1cc(-c2cc(OCC3CCOCC3)ccc2F)c(Cl)cn1)c1nnc(Cc2ccccc2F)[nH]1` [Example 329, N-(5-chloro-4-(2-fluoro-5-((tetrahydro-2H-pyran-4-yl)methoxy)phenyl)pyridin-2-yl)-5-(2-fluorobenzyl)-4H-1,2,4-triazole-3-carboxamide] had an IC50 of 100 to 1000 nM.

With `O=C(Nc1cc(-c2cc(OCC3CCOCC3)ccc2F)c(Cl)cn1)c1nnc(CC2CCCCC2)[nH]1` [Example 330, 5-(cyclohexylmethyl)-N-(5-chloro-4-(2-fluoro-5-((tetrahydro-2H-pyran-4-yl)methoxy)phenyl)pyridin-2-yl)-4H-1,2,4-triazole-3-carboxamide], the IC50 fell in the range of 100 to 1000 nM.

In turn, `Cc1cnc(NC(=O)c2nnc(Cc3ccccc3F)[nH]2)cc1-c1cc(OCC2CCOCC2)ccc1F` [Example 331, N-(4-(2-fluoro-5-((tetrahydro-2H-pyran-4-yl)methoxy)phenyl)-5-methylpyridin-2-yl)-5-(2-fluorobenzyl)-4H-1,2,4-triazole-3-carboxamide] gave an IC50 of 1000 to 10000 nM.

Regarding `Cc1cnc(NC(=O)c2nnc(CC3CCCCC3)[nH]2)cc1-c1cc(OCC2CCOCC2)ccc1F` [Example 332, 5-(cyclohexylmethyl)-N-(4-(2-fluoro-5-((tetrahydro-2H-pyran-4-yl)methoxy)phenyl)-5-methylpyridin-2-yl)-4H-1,2,4-triazole-3-carboxamide], the IC50 lay in the range of 1000 to 10000 nM.

`O=C(Nc1cc(-c2cc(OCCC3CCOCC3)ccc2F)c(Cl)cn1)c1nnc(Cc2ccccc2F)[nH]1` [Example 333, N-(5-chloro-4-(2-fluoro-5-(2-(tetrahydro-2H-pyran-4-yl)ethoxy)phenyl)pyridin-2-yl)-5-(2-fluorobenzyl)-4H-1,2,4-triazole-3-carboxamide] displayed an IC50 of 100 to 1000 nM.

In the case of `O=C(Nc1cc(-c2cc(OCCC3CCOCC3)ccc2F)c(Cl)cn1)c1nnc(CC2CCCCC2)[nH]1` [Example 334, N-(5-chloro-4-(2-fluoro-5-(2-(tetrahydro-2H-pyran-4-yl)ethoxy)phenyl)pyridin-2-yl)-5-(cyclohexylmethyl)-4H-1,2,4-triazole-3-carboxamide], the IC50 lay in the range of 100 to 1000 nM.

`Cc1cnc(NC(=O)c2nnc(Cc3ccccc3F)[nH]2)cc1-c1cc(OCCC2CCOCC2)ccc1F` [Example 335, N-(4-(2-fluoro-5-(2-(tetrahydro-2H-pyran-4-yl)ethoxy)phenyl)-5-methylpyridin-2-yl)-5-(2-fluorobenzyl)-4H-1,2,4-triazole-3-carboxamide] returned an IC50 of 1000 to 10000 nM.

For the compound `Cc1cnc(NC(=O)c2nnc(CC3CCCCC3)[nH]2)cc1-c1cc(OCCC2CCOCC2)ccc1F` [Example 336, 5-(cyclohexylmethyl)-N-(4-(2-fluoro-5-(2-(tetrahydro-2H-pyran-4-yl)ethoxy)phenyl)-5-methylpyridin-2-yl)-4H-1,2,4-triazole-3-carboxamide], the IC50 was in the range of 1000 to 10000 nM.

`CC(C)(O)CCCOc1ccc(Cl)c(-c2ccnc(NC(=O)c3nnc(Cc4ccccc4)[nH]3)c2)c1` [Example 337, 5-benzyl-N-(4-(5-((4-hydroxy-4-methylpentyl)oxy)-2-chlorophenyl)pyridin-2-yl)-4H-1,2,4-triazole-3-carboxamide] yielded an IC50 of no more than 100 nM.

`CC(C)(O)CCCOc1ccc(Cl)c(-c2ccnc(NC(=O)c3nnc(Cc4ccccc4F)[nH]3)c2)c1` [Example 338, N-(4-(2-chloro-5-((4-hydroxy-4-methylpentyl)oxy)phenyl)pyridin-2-yl)-5-(2-fluorobenzyl)-4H-1,2,4-triazole-3-carboxamide] returned an IC50 of no more than 100 nM.

Compound `CC(C)(O)CCCOc1ccc(Cl)c(-c2ccnc(NC(=O)c3nnc(Cc4ccc(F)c(F)c4)[nH]3)c2)c1` [Example 339, N-(4-(2-chloro-5-((4-hydroxy-4-methylpentyl)oxy)phenyl)pyridin-2-yl)-5-(3,4-difluorobenzyl)-4H-1,2,4-triazole-3-carboxamide] gave an IC50 of 100 to 1000 nM.

With `CC(C)(O)CCCOc1ccc(Cl)c(-c2ccnc(NC(=O)c3nnc(Cc4cc(Cl)ccc4F)[nH]3)c2)c1` [Example 340, 5-(5-chloro-2-fluorobenzyl)-N-(4-(2-chloro-5-((4-hydroxy-4-methylpentyl)oxy)phenyl)pyridin-2-yl)-4H-1,2,4-triazole-3-carboxamide], the IC50 was 100 to 1000 nM.

In the case of `CC(C)(O)CCCOc1ccc(Cl)c(-c2ccnc(NC(=O)c3nnc(Cc4cc(F)cc(Cl)c4)[nH]3)c2)c1` [Example 341, N-(4-(2-chloro-5-((4-hydroxy-4-methylpentyl)oxy)phenyl)pyridin-2-yl)-5-(3-chloro-5-fluorobenzyl)-4H-1,2,4-triazole-3-carboxamide], the IC50 is 100 to 1000 nM.

`CC(C)(O)CCCOc1ccc(Cl)c(-c2ccnc(NC(=O)c3nnc(Cc4ccc(F)c(Cl)c4)[nH]3)c2)c1` [Example 342, 5-(3-chloro-4-fluorobenzyl)-N-(4-(2-chloro-5-((4-hydroxy-4-methylpentyl)oxy)phenyl)pyridin-2-yl)-4H-1,2,4-triazole-3-carboxamide] registered an IC50 of 100 to 1000 nM.

`COc1cc(Cc2nnc(C(=O)Nc3cc(-c4cc(OCCCC(C)(C)O)ccc4Cl)ccn3)[nH]2)ccc1F` [Example 343, N-(4-(2-chloro-5-((4-hydroxy-4-methylpentyl)oxy)phenyl)pyridin-2-yl)-5-(4-fluoro-3-methoxybenzyl)-4H-1,2,4-triazole-3-carboxamide] displayed an IC50 of 1000 to 10000 nM.

On to `Cc1cc(F)cc(Cc2nnc(C(=O)Nc3cc(-c4cc(OCCCC(C)(C)O)ccc4Cl)ccn3)[nH]2)c1` [Example 344, N-(4-(2-chloro-5-((4-hydroxy-4-methylpentyl)oxy)phenyl)pyridin-2-yl)-5-(3-fluoro-5-methylbenzyl)-4H-1,2,4-triazole-3-carboxamide], for which the IC50 fell in the range of 100 to 1000 nM.

Regarding `Cc1cc(Cc2nnc(C(=O)Nc3cc(-c4cc(OCCCC(C)(C)O)ccc4Cl)ccn3)[nH]2)ccc1F` [Example 345, N-(4-(2-chloro-5-((4-hydroxy-4-methylpentyl)oxy)phenyl)pyridin-2-yl)-5-(4-fluoro-3-methylbenzyl)-4H-1,2,4-triazole-3-carboxamide], the IC50 lay within 100 to 1000 nM.

`CC(C)(O)CCCOc1ccc(Cl)c(-c2ccnc(NC(=O)c3nnc(Cc4cccc(C(F)(F)F)c4F)[nH]3)c2)c1` [Example 346, N-(4-(2-chloro-5-((4-hydroxy-4-methylpentyl)oxy)phenyl)pyridin-2-yl)-5-(2-fluoro-3-(trifluoromethyl)benzyl)-4H-1,2,4-triazole-3-carboxamide]: the IC50 was in the range of 100 to 1000 nM.
